Measured values taken from a melting point compilation (Tetko et al.).

SMILES | melting point [°C]
O=C(O)c1c(C(F)(F)F)noc1C(F)(F)F | 169 to 171
CSCc1cc(C(=O)O)ccc1F | 119 to 121
Cc1ccc(CNC(=O)c2ccccc2NC(=O)CCl)cc1 | 150 to 152
N#CCOc1ccc(Cl)cc1CBr | 85 to 87
Nc1ccc(-c2ncno2)cc1 | 99 to 101
NC(C(=O)O)c1ccccc1Br (stereo unspecified) | 199 to 201
O=C(NC1CCS(=O)(=O)C1)OCC(F)(F)F (stereo unspecified) | 79 to 81
NC(=O)NCC1CCCCC1 | 168 to 170
Cc1nn(C)c(C)c1C(C)C(=O)O (stereo unspecified) | 119 to 121
N#Cc1ccc(-n2cnc3ccccc32)cc1 | 135 to 137
CC(=O)Nc1cc(-c2csc(N)n2)ccc1O | 218 to 222
N#Cc1ccc2c(c1)CC(=O)N2 | 249 to 251
CC1CC(=O)N(Cc2ccccc2)c2ccccc2N1 (stereo unspecified) | 110 to 112
O/N=C1\CCN2CCCCC12 (stereo unspecified) | 96 to 98
O=C(O)c1cc(-c2ccccc2)nc2cccc(Br)c12 | 235 to 237
O=C(CCl)NCC(F)(F)F | 51 to 53
O=c1ccccn1CCBr | 126 to 128
O=[N+]([O-])c1ccc(-c2nnc(O)o2)cc1 | 249 to 251
CC(Cl)c1nc2scc(-c3ccccc3)c2c(=O)[nH]1 (stereo unspecified) | 165 to 167
NS(=O)(=O)c1cccnc1 | 109 to 111
COc1ccc(C(N)Cc2ccccc2C)cc1OC (stereo unspecified) | 49 to 51
NCC(O)c1ccc(OC(F)F)cc1 (stereo unspecified) | 54 to 56

SMILES | melting point [°C]
O=C(CCl)N(Cc1ccc(F)cc1)C1CCCCC1 | 73 to 75
Nc1ccc2c(c1)NC(=O)CO2 | 215 to 217
O=Cc1ccc(OCc2ccccn2)cc1 | 88 to 90
O=C(CO)N1CCOCC1 | 77 to 79
CC1(c2ccc(OC(F)F)cc2)NC(=O)NC1=O (stereo unspecified) | 141 to 143
NC1=NN(c2ccccc2)CC1 | 168 to 170
CCCCc1ccnc(N)n1 | 99 to 101
COC(=O)COc1ccc(Br)cc1 | 49 to 51
CSc1nc2cnccc2o1 | 85 to 87
Cn1cc(C#N)cn1 | 59 to 61
CC(Oc1ccc(F)cc1)C(=O)NN (stereo unspecified) | 164 to 167
CCOC(=O)/C(C#N)=C/Nc1ccc(OC)cc1OC | 153 to 155
NC(=O)NC1CCCc2ccccc21 (stereo unspecified) | 204 to 206
Cc1ccoc1-c1nnc(N)s1 | 153 to 155
CC(=O)Nc1c(C)cc(N)cc1C | 204 to 206
O=C(O)c1cc(F)ccc1N1CCOCC1 | 158 to 160
O=C1NC(=O)C2(CCCC2)N1 | 140 to 142
CCCNc1cc(F)ccc1[N+](=O)[O-] | 61 to 63
Cc1n[nH]c(C(=O)O)c1C | 288 to 290
OC1CCc2ccc(F)cc21 (stereo unspecified) | 41 to 43
O=C(O)c1ccc(NC(=O)c2ccc(Br)o2)cc1 | 276 to 278
Nc1ccc(-n2ccnc2)cc1 | 143 to 147

SMILES | melting point [°C]
CC(=O)c1ccc(S(=O)(=O)Nc2ccc(C(=O)O)cc2)cc1 | 152 to 154
Sc1nc2ccccc2n1C1CCCCC1 | 178 to 182
Cc1cc(C)c(C#N)c(=S)[nH]1 | 255 to 257
O=C1CC2(CCCC2)C(=O)O1 | 33 to 35
Cc1cc(C)c(S(=O)(=O)Nc2cccc(C(F)(F)F)c2)c(C)c1 | 88 to 90
CC(C)(C)CCCC(=O)O | 36 to 38
Cc1cnc2c(Cl)nccc2n1 | 139 to 141
CSc1nc(N)cc(O)n1 | 279 to 281
CC(C)(C)OC(=O)N1CCC(C(=O)O)C1 (stereo unspecified) | 134 to 136
Clc1ncnc2c1CCC2 | 39 to 41
COc1ccc(C(C)=O)cc1CN1CCOCC1 | 58 to 60
CC(O)CNC(=O)c1cccc(O)c1 (stereo unspecified) | 116 to 118
O=C1NC(=O)C(=O)C(=O)N1 | 255 to 257
Cc1ccccc1Nc1nc(Cl)c(C=O)s1 | 153 to 155
Oc1ccnc(C2CC2)n1 | 152 to 154
Nc1ccc(Oc2cccc(F)c2)cc1 | 72 to 74
CC(Cl)c1cccc([N+](=O)[O-])c1 (stereo unspecified) | 33 to 35
O=C(CCl)Nc1ccccc1I | 38 to 40
Cc1nc2ccccn2c1CN1CCNCC1 | 163 to 165
N#CC=CS(=O)(=O)c1ccc(Cl)cc1 | 141 to 143

The remaining lines, values ahead:

melting point [°C] | SMILES
121 to 123 | CC(C)(C(=O)O)n1cc([N+](=O)[O-])cn1
245 to 247 | NC(=O)Cn1ncc(Cl)c(Cl)c1=O
89 to 91 | O=C(O)Cc1csc(-c2ccccc2)n1
119 to 121 | NC(=O)C(N)c1ccc(Br)cc1 (stereo unspecified)
179 to 181 | Cn1c(CCl)nc2ccccc2c1=O
84 to 86 | CCCCC(Br)C(=O)Nc1cc(C)on1 (stereo unspecified)
127 to 129 | CCOC(=O)C(C)NC(=O)c1ccc(N)cc1 (stereo unspecified)
56 to 58 | CCOC(=O)c1c(C(C)(C)C)csc1N
158 to 160 | Cc1cc(C)cc(-n2ncc(C(=O)O)n2)c1
92 to 94 | CC(C)Oc1ccccc1CC(=O)O
142 to 144 | O=C(O)C1CC(=O)N(c2cccc(Br)c2)C1 (stereo unspecified)
174 to 176 | Cc1nc2c(cnn2C(C)C)c(=O)[nH]1
214 to 216 | CCOc1ncc(C(=O)O)cc1Cl
232 to 234 | Cc1nn(-c2ccccc2)c(Cl)c1C(=O)O
186 to 188 | O=c1c(Cl)c(Cl)cnn1-c1ccc(Cl)cc1
108 to 110 | Clc1noc(-c2ccsc2)n1
242 to 244 | O=C(O)c1cc2ccc(Cl)cc2[nH]1
173 to 175 | O=C(O)c1cccc(Cl)c1O
169 to 171 | Cn1cc(Br)cc1C(=O)NN
133 to 135 | COc1ccc(CNC(=O)CCl)cc1C(=O)O
154 to 156 | CC(NC(=O)OCc1ccccc1)C(=O)N1CCNC(=O)C1 (stereo unspecified)

melting point [°C] | SMILES
142 to 144 | CC(=O)Nc1cccc(N)c1C
94 to 96 | CCOC(=O)c1ccc(S(=O)(=O)N2CCNCC2)cc1
154 to 156 | Cc1cc(N)ccc1C(=O)O
179 to 181 | O=C(O)c1cc(Br)sc1Br
279 to 281 | Cc1c(C(=O)O)cnc2c1c(=O)n(C)c(=O)n2C
253 to 255 | Cc1nc(N)ccc1C=CC(=O)O
99 to 101 | NC(=NO)c1cccc(NC(=O)CN2CCOCC2)c1
284 to 286 | O=c1[nH]cnc2ccc([N+](=O)[O-])cc12
189 to 191 | Cc1cccc(Cn2cccc(C(=O)O)c2=O)c1
91 to 93 | Nc1ccc(OCc2ccccn2)c(Cl)c1
194 to 196 | CN(C)C(=O)CN1C(=O)C(=O)c2cc(Br)ccc21
153 to 155 | Clc1ccc(Cc2nn[nH]n2)cc1Cl
205 to 207 | N#Cc1cc(N)c(Cl)c([N+](=O)[O-])c1
159 to 161 | CN(CC(=O)Nc1ccc(F)cc1)C(=O)CCl
194 to 196 | NC(=O)c1cncs1
124 to 126 | COC(=O)c1ccc(S(N)(=O)=O)cc1Cl
132 to 134 | Cn1cnnc1S(C)(=O)=O
82 to 84 | COC(=O)c1ccc(S(=O)(=O)Cl)c(Br)c1
176 to 178 | NNC(=O)Cn1ccc2ccccc21
148 to 150 | CCC(C)n1ncc2c(C(=O)O)cc(C)nc21 (stereo unspecified)
199 to 201 | Cc1cc(C(=O)O)on1
